Measured values: US20230226065A1, “ANTI-INFLAMMATORY COMPOSITIONS, METHODS AND USES THEREOF” (COMVITA LIMITED, priority 2020, published 2023)

Test: Simulated gastrointestinal digestion (SGF then SIF), HPLC retention of 3,6,7-trimethyllumazine
Type: in vitro ADME
Conditions: for remaining amount of 3,6,7-trimethyllumazine: pure compound
Description: The simulated gastrointestinal digestion was carried out using a static model. The simulated gastric fluid (SGF) and the simulated intestinal fluid (SIF) were prepared in accordance with a global consensus protocol (Minekus et al 2014). The SGF has a pH 3 to mimic the fed-state of the stomach. When mixed with Manuka honey (or a honey solution), the final mixture contains 2000 U/mL of pepsin. The SIF has pH 7 to mimic the fed-state of the small intestine, containing 2 mg/mL of pancreatin (8×USP, or based on a protease activity of 200 U/mL) and 20 mM of porcine bile extract before use.
In the simulated gastric digestion, 2 g of Manuka honey was incubated in 2 mL of SGF at 37° C. under 95 rpm shaking for a period of 2 h (triplicates). At selected time points (0, 30, 60 and 120 min), a predetermined volume (0.1 mL) of the mixture was withdrawn for 3,6,7-trimethyllumazine analysis. The solution for analysis was kept on ice with an addition of 0.1 mL SIF (pH 7) to stop pepsin activity. As a control group, a pure 3,6,7-trimethyllumazine solution was treated in the same way for comparative purposes.
Following the 2 h gastric digestion, the resulting solution was mixed with SIF (pH 7) at a volume ratio of 1:1, to have a final mixture that contains 1 mg/mL of pancreatin and 10 mM of porcine bile extract. This mixture was incubated at 37° C. under 95 rpm shaking for 4 h (triplicates). At selected time points (0, 60, 120 and 240 min), a predetermined volume (0.1 mL) of the mixture was withdrawn for 3,6,7-trimethyllumazine concentration analysis. The pancreatin activity in the withdrawn solution was quenched by adding 5 mmol/L Pefabloc® (Egger et al 2019).
The gastric and intestinal digesta for 3,6,7-trimethyllumazine analysis was treated to remove insoluble fractions (e.g. pancreatin) before HPLC analysis. In brief, all samples were diluted with 0.1% formic acid and then centrifuged at 14,000 rpm for 10 min. Supernatant was taken for analysis. The amount of 3,6,7-trimethyllumazine at different time points was analysed using a reverse-phase HPLC system, which has been previously used to analyse 3,6,7-trimethyllumazine and leptosperin as reported in the literature (Bin Lin et al 2017). In brief, the samples were diluted 5 times in 0.1% v/v formic acid. A Hypersil GOLD column (150×2.1 mm, […]) was used as the stationary phase (25° C.), and the mobile phase will consist of 0.1% formic acid (phase A), and 80:20 acetonitrile: 0.1% formic acid (phase B). […] The signal of 3,6,7-trimethyllumazine was detected at 320 nm.

## Cc1nc2[nH]c(=O)n(C)c(=O)c2nc1C [3,6,7-trimethyllumazine]
50% (w/w) Manuka honey solutions or pure compound directly exposed to digestive media
  degradation during gastrointestinal digestion: No significant degradation
From four Manuka honey samples, end of 2 h gastric plus 4 h intestinal digestion
  initial amount recovered in the digesta: ~100%
SGF, 0 h, mean ± SD, n=3
  remaining amount of 3,6,7-trimethyllumazine: 682 ± 90 ng/mL
SGF, 0.5 h
  remaining amount of 3,6,7-trimethyllumazine: 703 ± 57 ng/mL
SGF, 1 h
  remaining amount of 3,6,7-trimethyllumazine: 728 ± 28 ng/mL
SGF, 2 h
  remaining amount of 3,6,7-trimethyllumazine: 688 ± 72 ng/mL
SIF, 0 h
  remaining amount of 3,6,7-trimethyllumazine: 736 ± 6 ng/mL
SIF, 1 h
  remaining amount of 3,6,7-trimethyllumazine: 740 ± 12 ng/mL
SIF, 2 h
  remaining amount of 3,6,7-trimethyllumazine: 732 ± 10 ng/mL
SIF, 4 h
  remaining amount of 3,6,7-trimethyllumazine: 730 ± 3 ng/mL
